In PubChem BioAssay (NCI):
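Cultured in 96-well plates, cells were exposed to test compound for 48 hours across five concentrations. The concentration for full growth arrest is given as TGI.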

What was measured:
Assay in all cases: NCI tumour cell line growth inhibition, 48 h
786-0 renal = system: 786-0 renal
A498 renal = system: A498 renal
A549 NSCLC = system: A549 NSCLC
ACHN renal = system: ACHN renal
COLO 205 colon = system: COLO 205 colon
DLD-1 colon = system: DLD-1 colon
DMS 114 small cell lung = system: DMS 114 small cell lung
EKVX NSCLC = system: EKVX NSCLC
HCC-2998 colon = system: HCC-2998 colon
HCT-116 colon = system: HCT-116 colon
HCT-15 colon = system: HCT-15 colon
HL-60(TB) leukemia = system: HL-60(TB) leukemia
HOP-18 NSCLC = system: HOP-18 NSCLC
HOP-62 NSCLC = system: HOP-62 NSCLC
HOP-92 NSCLC = system: HOP-92 NSCLC
HT29 colon = system: HT29 colon
IGROV1 ovarian = system: IGROV1 ovarian
K-562 leukemia = system: K-562 leukemia
KM12 colon = system: KM12 colon
KM20L2 colon = system: KM20L2 colon
LOX IMVI melanoma = system: LOX IMVI melanoma
LXFL 529 NSCLC = system: LXFL 529 NSCLC
M19-MEL melanoma = system: M19-MEL melanoma
MALME-3M melanoma = system: MALME-3M melanoma
MOLT-4 leukemia = system: MOLT-4 leukemia
NCI-H226 lung = system: NCI-H226 lung
NCI-H23 lung = system: NCI-H23 lung
NCI-H460 lung = system: NCI-H460 lung
NCI-H522 lung = system: NCI-H522 lung
OVCAR-3 ovarian = system: OVCAR-3 ovarian
OVCAR-4 ovarian = system: OVCAR-4 ovarian
OVCAR-5 ovarian = system: OVCAR-5 ovarian
OVCAR-8 ovarian = system: OVCAR-8 ovarian
RPMI-8226 leukemia = system: RPMI-8226 leukemia
RXF 393 renal = system: RXF 393 renal
SF-268 CNS = system: SF-268 CNS
SF-295 CNS = system: SF-295 CNS
SF-539 CNS = system: SF-539 CNS
SK-MEL-2 melanoma = system: SK-MEL-2 melanoma
SN12C renal = system: SN12C renal
SNB-19 CNS = system: SNB-19 CNS
SNB-75 CNS = system: SNB-75 CNS
SR leukemia = system: SR leukemia
SW-620 colon = system: SW-620 colon
TK-10 renal = system: TK-10 renal
U251 CNS = system: U251 CNS
UACC-257 melanoma = system: UACC-257 melanoma
UO-31 renal = system: UO-31 renal
XF 498 CNS = system: XF 498 CNS
CAKI-1 renal = system: CAKI-1 renal
CCRF-CEM leukemia = system: CCRF-CEM leukemia
DMS 273 small cell lung = system: DMS 273 small cell lung
M14 melanoma = system: M14 melanoma
SK-MEL-28 melanoma = system: SK-MEL-28 melanoma
SK-MEL-5 melanoma = system: SK-MEL-5 melanoma
SK-OV-3 ovarian = system: SK-OV-3 ovarian
UACC-62 melanoma = system: UACC-62 melanoma

Cc1ccc(-n2c(=S)[nH]c3ccc(Br)cc3c2=O)cc1
TGI (786-0 renal): > 100 µM | TGI (A498 renal): > 100 µM | TGI (A549 NSCLC): > 100 µM | TGI (ACHN renal): > 100 µM | TGI (COLO 205 colon): > 100 µM | TGI (DLD-1 colon): > 100 µM | TGI (DMS 114 small cell lung): > 100 µM | TGI (EKVX NSCLC): > 100 µM | TGI (HCC-2998 colon): > 100 µM | TGI (HCT-116 colon): > 100 µM | TGI (HCT-15 colon): > 100 µM | TGI (HL-60(TB) leukemia): > 100 µM | TGI (HOP-18 NSCLC): > 100 µM | TGI (HOP-62 NSCLC): > 100 µM | TGI (HOP-92 NSCLC): > 100 µM | TGI (HT29 colon): > 100 µM | TGI (IGROV1 ovarian): > 100 µM | TGI (K-562 leukemia): > 100 µM | TGI (KM12 colon): > 100 µM | TGI (KM20L2 colon): > 100 µM | TGI (LOX IMVI melanoma): > 100 µM | TGI (LXFL 529 NSCLC): > 100 µM | TGI (M19-MEL melanoma): > 100 µM | TGI (MALME-3M melanoma): > 100 µM | TGI (MOLT-4 leukemia): > 100 µM | TGI (NCI-H226 lung): > 100 µM | TGI (NCI-H23 lung): > 100 µM | TGI (NCI-H460 lung): > 100 µM | TGI (NCI-H522 lung): > 100 µM | TGI (OVCAR-3 ovarian): > 100 µM | TGI (OVCAR-4 ovarian): > 100 µM | TGI (OVCAR-5 ovarian): > 100 µM | TGI (OVCAR-8 ovarian): > 100 µM | TGI (RPMI-8226 leukemia): > 100 µM | TGI (RXF 393 renal): > 100 µM | TGI (SF-268 CNS): > 100 µM | TGI (SF-295 CNS): > 100 µM | TGI (SF-539 CNS): > 100 µM | TGI (SK-MEL-2 melanoma): > 100 µM | TGI (SN12C renal): > 100 µM | TGI (SNB-19 CNS): > 100 µM | TGI (SNB-75 CNS): > 100 µM | TGI (SR leukemia): > 100 µM | TGI (SW-620 colon): > 100 µM | TGI (TK-10 renal): > 100 µM | TGI (U251 CNS): > 100 µM | TGI (UACC-257 melanoma): > 100 µM | TGI (UO-31 renal): > 100 µM | TGI (XF 498 CNS): > 100 µM

O=C1OC(CC(=O)c2ccc(Cl)cc2)C(Cl)=C1Cl (configuration not stated)
TGI (786-0 renal): > 100 µM | TGI (A498 renal): > 100 µM | TGI (A549 NSCLC): > 100 µM | TGI (ACHN renal): > 100 µM | TGI (CAKI-1 renal): > 100 µM | TGI (CCRF-CEM leukemia): > 100 µM | TGI (COLO 205 colon): > 100 µM | TGI (DLD-1 colon): > 100 µM | TGI (DMS 114 small cell lung): > 100 µM | TGI (DMS 273 small cell lung): > 100 µM | TGI (EKVX NSCLC): > 100 µM | TGI (HCC-2998 colon): > 100 µM | TGI (HCT-116 colon): > 100 µM | TGI (HCT-15 colon): > 100 µM | TGI (HL-60(TB) leukemia): 76.9 µM | TGI (HOP-18 NSCLC): > 100 µM | TGI (HOP-62 NSCLC): > 100 µM | TGI (HOP-92 NSCLC): > 100 µM | TGI (HT29 colon): > 100 µM | TGI (IGROV1 ovarian): > 100 µM | TGI (K-562 leukemia): > 100 µM | TGI (KM12 colon): > 100 µM | TGI (KM20L2 colon): > 100 µM | TGI (LXFL 529 NSCLC): > 100 µM | TGI (M14 melanoma): > 100 µM | TGI (M19-MEL melanoma): > 100 µM | TGI (MALME-3M melanoma): > 100 µM | TGI (MOLT-4 leukemia): > 100 µM | TGI (NCI-H226 lung): > 100 µM | TGI (NCI-H23 lung): > 100 µM | TGI (NCI-H460 lung): > 100 µM | TGI (NCI-H522 lung): > 100 µM | TGI (OVCAR-3 ovarian): > 100 µM | TGI (OVCAR-4 ovarian): > 100 µM | TGI (OVCAR-5 ovarian): > 100 µM | TGI (OVCAR-8 ovarian): > 100 µM | TGI (RPMI-8226 leukemia): > 100 µM | TGI (SF-268 CNS): > 100 µM | TGI (SF-295 CNS): > 100 µM | TGI (SF-539 CNS): > 100 µM | TGI (SK-MEL-2 melanoma): > 100 µM | TGI (SK-MEL-28 melanoma): > 100 µM | TGI (SK-MEL-5 melanoma): > 100 µM | TGI (SK-OV-3 ovarian): > 100 µM | TGI (SN12C renal): > 100 µM | TGI (SNB-19 CNS): > 100 µM | TGI (SNB-75 CNS): > 100 µM | TGI (SR leukemia): > 100 µM | TGI (SW-620 colon): > 100 µM | TGI (TK-10 renal): > 100 µM | TGI (U251 CNS): > 100 µM | TGI (UACC-257 melanoma): > 100 µM | TGI (UACC-62 melanoma): > 100 µM | TGI (UO-31 renal): > 100 µM | TGI (XF 498 CNS): > 100 µM

[O-][n+]1c2cc(CBr)c(CBr)cc2[n+]([O-])c2c(O)cccc21
TGI (786-0 renal): 2.93 µM | TGI (A498 renal): 25.7 µM | TGI (A549 NSCLC): 9.03 µM | TGI (ACHN renal): 3.51 µM | TGI (CAKI-1 renal): 6.7 µM | TGI (CCRF-CEM leukemia): 0.714 µM | TGI (COLO 205 colon): 3.47 µM | TGI (DLD-1 colon): 2.71 µM | TGI (DMS 114 small cell lung): 3.35 µM | TGI (DMS 273 small cell lung): 3.22 µM | TGI (EKVX NSCLC): 11.6 µM | TGI (HCT-116 colon): 2.87 µM | TGI (HCT-15 colon): 3.18 µM | TGI (HL-60(TB) leukemia): 1.14 µM | TGI (HOP-18 NSCLC): 10.5 µM | TGI (HOP-62 NSCLC): 34.7 µM | TGI (HOP-92 NSCLC): 2.92 µM | TGI (HT29 colon): 3.88 µM | TGI (IGROV1 ovarian): 8.59 µM | TGI (KM12 colon): 3.66 µM | TGI (KM20L2 colon): 9.53 µM | TGI (LOX IMVI melanoma): 2.64 µM | TGI (LXFL 529 NSCLC): 2.89 µM | TGI (M14 melanoma): 3.29 µM | TGI (M19-MEL melanoma): 3.32 µM | TGI (MALME-3M melanoma): 3.47 µM | TGI (MOLT-4 leukemia): 1.25 µM | TGI (NCI-H226 lung): 14.2 µM | TGI (NCI-H23 lung): 6.68 µM | TGI (NCI-H460 lung): 4.21 µM | TGI (NCI-H522 lung): 1.16 µM | TGI (OVCAR-3 ovarian): 5.24 µM | TGI (OVCAR-4 ovarian): 5.25 µM | TGI (OVCAR-5 ovarian): 3.74 µM | TGI (OVCAR-8 ovarian): 3.3 µM | TGI (RXF 393 renal): 3.69 µM | TGI (SF-268 CNS): 5.91 µM | TGI (SF-295 CNS): 3.27 µM | TGI (SK-MEL-2 melanoma): 4.83 µM | TGI (SK-MEL-28 melanoma): 3.67 µM | TGI (SK-MEL-5 melanoma): 4.39 µM | TGI (SK-OV-3 ovarian): 9.15 µM | TGI (SN12C renal): 3.05 µM | TGI (SNB-19 CNS): 11 µM | TGI (SNB-75 CNS): 4.48 µM | TGI (SR leukemia): 0.662 µM | TGI (SW-620 colon): 2.9 µM | TGI (TK-10 renal): 10.9 µM | TGI (U251 CNS): 7.07 µM | TGI (UACC-257 melanoma): 6.37 µM | TGI (UACC-62 melanoma): 3.39 µM | TGI (UO-31 renal): 4.56 µM | TGI (XF 498 CNS): 4.67 µM
